# PMC12866179, “Oxidized MIF is an Alzheimer’s disease drug target relaying external risk factors to tau pathology” (Cell Reports Medicine, 2025)
# Columns and labels:
# [1] = MTT assay, SH-SY5Y-tau-P301S cells; type: cell-based; conditions: human, Figure S1B
# Description: For viability analysis 4x10^4 Vero or 8x10^4 SH-SY5Y-tau-P301S cells were plated in a 96-well plate and incubated at 37°C overnight. Then the compounds diluted in DMSO were added to the cells. The final concentration of DMSO was 1%. The cells were then incubated for 24h (Vero) or 48h (SH-SY5Y). Afterward 20 μL of a Thiazolyl Blue Tetrazolium Bromide (MTT, Sigma) solution (5 mg/mL in PBS) was added to the cells and incubated for 4h allowing viable cells to reduce the yellow MTT into blue formazan metabolites. Following aspiration of the medium, the formazan was resuspended in 200 μL isopropanol/40 mM HCl and incubated for 30 min at RT. The diluted formazan was spectrometrically analyzed using a Tecan Safire Spectrometer at 560 nm and background at 670 nm was subtracted.
# HSV-1 [2] = test: HSV-1 infection of human brain organoids; type: cell-based, HSV-1 KOS strain; conditions: 250 nM PAV-174
# Description: 60 days old human brain organoids with an estimated cell number of 2.5x10^6 were preincubated with DMSO or 250 nM of PAV-174 for 1h (final DMSO concentration was 0.5%). Then organoids were infected with HSV-1 at an MOI of 0.1 or 1.0. At the next day the medium was renewed and new compound was added. After another 24h, the organoids were washed two times with PBS and then either fixed with 4% PFA at 4°C overnight (for immunocytochemistry and TUNEL assay) or lysed with cold RIPA buffer (50 mM Tris-HCL, pH 7.4, 1% NP-40, 0.5% Na-deoxycholate, 0.1% SDS, 150 mM NaCl, 5 mM EDTA, 50 mM NaF) plus 1X Protease inhibitor cocktail (Roche) and phosphatase inhibitor cocktail (Sigma) followed by 4x sonication for 30s using a Misonix ultrasonic water bath at 100% amplitude. Protein concentration was determined with the DC Protein Assay (Bio-Rad). For immunocytochemistry and TUNEL assay fixed organoids were embedded in paraffin and section of 5 μm were prepared.
# For immunocytochemistry of organoid sections, frozen slides were thawed and kept on RT until they were dry. Slides were washed with PBS and incubated for 5 min. Then the sections were incubated with 30 mM glycine in PBS for 5 min and permeabilized with PBS/0.5% TX100/0.1% Tween 20 for 10 min. To equally distribute the solutions a parafilm layer was placed on top. […]
# HSV-1 [3] = test: HSV-1 infection of differentiated LUHMES cells (immunocytochemistry, western blot); type: cell-based, HSV-1 KOS strain; conditions: infected with HSV-1
# Description: 4x10^5 Vero cells, 8x10^5 SH-SY5Y or 2x10^6 differentiated LUHMES (differentiation day 6) cells were seeded into 12-well plates. After 24h the cells were treated with compounds (as indicated in the figures) and after 1h they were infected with HSV-1 applying MOIs as described in the figures. After 20h (or at indicated time points) cells were either washed twice with PBS, then lysed in cold PBS/1% NP40 including the cOmplete EDTA-free protease inhibitor cocktail (Roche) and phosphatase inhibitor cocktail (Sigma) or virus was released by freeze-thawing and ultrasonic treatment for analysis in viral plaque assay (see above). For immunocytochemistry analysis 5x10^4 LUHMES cells at differentiation day 2 were seeded on 13 mm coverslips that were coated with L-ornithine and fibronectin (see above) and placed into 24-well plates. After four additional days of differentiation the cells were infected with HSV-1 (MOI = 1). […] After the protein concentration of cell lysates and homogenates had been determined using the DC Protein Assay Kit (Bio-Rad), 20 μg of each sample were dissolved in NuPAGE LDS Sample buffer (including 2% β-mercaptoethanol), boiled at 100°C for 5 min and then separated on NuPAGE Novex 4–12% Bis-Tris midi gels (Invitrogen) using NuPAGE MES SDS Running buffer (Invitrogen). […] Signal intensities were calculated using the Image Studio Version 2.1 software (LI-COR Biosciences). […]
smiles,measurement,setting,value
"CCc1cc(N2CCCC2)cc2[s+]c3cc(N4CCCC4)cc(C)c3nc12.[I-] [PAV-174, 3,7-Di(pyrrolidine-1-yl) 1-ethyl-9-methyl-phenothiazin-5-ium iodide]",CC50 at 48 h,[1],1480 nM
same,HSV-1 infection of human brain organoids (HSV-1-gC staining),HSV-1 [2],completely abolished
same,viral antigens (HSV-1-gC) in differentiated LUHMES cells,HSV-1 [3],reduced
